Laboratory results as given in PMC2948022 (Talanta, 2010).

How the values were obtained:
Plasma concentrations of = details: CRPS patient, (R,S)-Ket 40 mg/h continuous infusion, morning of Day 3; estimated using the standard curve for (2S,6S); (2R,6R)-hydroxynorketamine
Urine concentrations of = type: in vivo, human; details: CRPS patient, (R,S)-Ket 40 mg/h continuous infusion, morning of Day 3
Relative = type: in vivo, human; details: CRPS patient urine, Day 3, AGP-CSP
[1] = cited from earlier work
[2] = cited from earlier work; remark: listed apart in the source
[3] = estimated using the standard curve for (2S,6S), (2R,6R)-hydroxynorketamine
[4] = estimated using the standard curve for (2S,6S)-hydroxyketamine

| Compound | Plasma (Plasma concentrations of) [ng/mL] | Urine (Urine concentrations of; [3]) [ng/mL] | further results |
| --- | --- | --- | --- |
| NC1(c2ccccc2Cl)CC(O)CCC1=O (single isomer, unassigned) [Peak 4e] | 160 | 515 | – |
| N[C@]1(c2ccccc2Cl)CC[C@@H](O)CC1=O (single isomer, unassigned) [Peak 4f] | 141 | – | Urine (ng/ml) (Urine concentrations of; [3]): 4,099 ng/ml |
| CNC1(c2ccccc2Cl)CCCCC1=O (single isomer, unassigned; peak 1) [Peak 1, (R.S)-Ketamine] | – | – | relative enantiomeric urine concentration (R)-/(S)- (Relative): 1.0 |
| N[C@@]1(c2ccccc2Cl)CCC[C@@H](O)C1=O (single isomer, unassigned; peak 4a) [Peak 4a] | – | – | concentration in the CNS [1]: reaches significant concentration in the CNS; anesthetic activity [2]: no anesthetic activity |
| NC1(c2ccccc2Cl)CCCC(O)C1=O (single isomer, unassigned; peak 4b) [Peak 4b] | 881 | 572 | – |
| N[C@]1(c2ccccc2Cl)CC[C@H](O)CC1=O (single isomer, unassigned; peak 4c) [Peak 4c] | 245 | 940 | – |
| N[C@]1(c2ccccc2Cl)C[C@@H](O)CCC1=O (single isomer, unassigned; peak 4d) [Peak 4d] | 145 | 475 | – |
| CN[C@]1(c2ccccc2Cl)CC[C@H](O)CC1=O (single isomer, unassigned; peak 5c) [Peak 5c] | – | – | Urine (Urine concentrations of; [4]): 4 ng/mL |
| CN[C@@]1(c2ccccc2Cl)CC[C@H](O)CC1=O (single isomer, unassigned; peak 5d) [Peak 5d] | – | – | Urine (Urine concentrations of; [4]): 5 ng/mL |
